Among the data in the supplement of paper PMC10307832 are relative viability values, retold here.

Common to all, as to test: relative viability (nuclei count vs DMSO), 5 days (fraction); higher = more cells survive
Compound in the test “Zebularine + Vorinostat”: O=c1ncccn1[C@@H]1O[C@H](CO)[C@@H](O)[C@H]1O [Zebularine] + O=C(CCCCCCC(=O)Nc1ccccc1)NO [Vorinostat] (partner 1 µM)
The method, boiled down: (§1)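 Lung cancer cell lines, seeded in 1536-well plates, were treated the following day by pin tool with a single drug or with five library-drug doses (not always all listed) in √10 steps on top of a fixed anchor-drug dose. Cells were fixed and nuclei stained in one step after 5 days, and nuclei were counted. Relative viability is the nuclei count for treated wells divided by that for vehicle wells, reported as medians of duplicate plates.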

Compound in the test “BI-D1870 + Pictilisib”: CC(C)CCN1c2nc(Nc3cc(F)c(O)c(F)c3)ncc2N(C)C(=O)C1C [BI-D1870] + CS(=O)(=O)N1CCN(Cc2cc3nc(-c4cccc5[nH]ncc45)nc(N4CCOCC4)c3s2)CC1 [Pictilisib] (partner 1 µM)
The method, boiled down:
as §1

Compound in the test “Zebularine + Foretinib”: O=c1ncccn1[C@@H]1O[C@H](CO)[C@@H](O)[C@H]1O [Zebularine] + COc1cc2c(Oc3ccc(NC(=O)C4(C(=O)Nc5ccc(F)cc5)CC4)cc3F)ccnc2cc1OCCCN1CCOCC1 [Foretinib] (partner 0.25 µM)
The method, boiled down:
as §1

Compound in the test “Zebularine + Lapatinib”: O=c1ncccn1[C@@H]1O[C@H](CO)[C@@H](O)[C@H]1O [Zebularine] + CS(=O)(=O)CCNCc1ccc(-c2ccc3ncnc(Nc4ccc(OCc5cccc(F)c5)c(Cl)c4)c3c2)o1 [Lapatinib] (partner 2 µM)
The method, boiled down:
as §1

In the case of UMC-11, the relative viability with Zebularine + Vorinostat (first compound 1 µM) came out at 0.388; in the test with Zebularine + Vorinostat (first compound 3.162 µM) it was 0.359; in the test with Zebularine + Vorinostat (first compound 10 µM) it was 0.335; with Zebularine + Vorinostat (first compound 31.62 µM), 0.331; with Zebularine + Vorinostat (first compound 100 µM), 0.279; with BI-D1870 + Pictilisib (first compound 0.04 µM), 0.908. Also, the relative viability with BI-D1870 + Pictilisib (first compound 0.1265 µM) is 0.608; in the test with BI-D1870 + Pictilisib (first compound 0.4 µM) it was 0.759; in the test with BI-D1870 + Pictilisib (first compound 1.265 µM) it was 0.733; with BI-D1870 + Pictilisib (first compound 4 µM), 0.316; in the test with Zebularine + Foretinib (first compound 1 µM), 1; with Zebularine + Foretinib (first compound 3.162 µM), 1.06. The relative viability with Zebularine + Foretinib (first compound 10 µM) stood at 0.626; with Zebularine + Foretinib (first compound 31.62 µM), 0.635; with Zebularine + Foretinib (first compound 100 µM) it was 0.357; in the test with Zebularine + Lapatinib (first compound 1 µM) it was 1.28; with Zebularine + Lapatinib (first compound 3.162 µM) it was 0.977; with Zebularine + Lapatinib (first compound 10 µM), 0.614. Also, the relative viability in the test with Zebularine + Lapatinib (first compound 31.62 µM) worked out at 0.849; with Zebularine + Lapatinib (first compound 100 µM) it was 0.436.
